Assay results published in patent US5376645A (University of Kansas, priority 1992, dated 1994).

Key:
[1] = Phase solubility: association constant with phenytoin; type: physicochemical; conditions: 1:1 complex
Source text: Similar results can be seen for progesterone (see Table 3 and FIGS. 5 and 6), phenytoin (see Table 4 and FIGS. 7 and 8), and testosterone (see Table 5 and FIGS. 9 and 10).

[2] = Plasma urea nitrogen (kidney function); type: in vivo; conditions: mice; 24 hrs; n = 4; normal saline control 15.88 ± 1.21
Source text: Plasma urea nitrogen levels are an indicator of kidney function with higher levels indicating renal damage. […] There is however no statistical difference between our derivatives and the hydroxypropyl derivative.
^(1) SIGMA Urea Nitrogen Procedure No. 640A

[3] = Phase solubility: association constant with testosterone; type: physicochemical; conditions: 1:1 complex
red blood cell = assay: Hemolysis of red blood cells (membrane disruption); type: cell-based
Source text: The mono substituted derivatives caused about the same amount of membrane disruption as the hydroxypropyl derivative.

[4] = Phase solubility: association constant with digoxin; type: physicochemical; conditions: 1:1 complex

Q: For `OC[C@H]1O[C@@H]2O[C@H]3[C@H](O)[C@@H](O)[C@@H](O[C@H]4[C@H](O)[C@@H](O)[C@@H](O[C@H]5[C@H](O)[C@@H](O)[C@@H](O[C@H]6[C@H](O)[C@@H](O)[C@@H](O[C@H]7[C@H](O)[C@@H](O)[C@@H](O[C@H]8[C@H](O)[C@@H](O)[C@@H](O[C@H]1[C@H](O)[C@H]2O)O[C@@H]8CO)O[C@@H]7CO)O[C@@H]6CO)O[C@@H]5CO)O[C@@H]4CO)O[C@@H]3CO` [β-Cyclodextrin, β-cyclodextrin], which “Phenytoin association constant K1:1” value [1] is on record?
A: Its value is 1510 M⁻¹.

Q: And the “Plasma Urea Nitrogen, PUN + S.D.” value [2]?
A: Its value is 160.10 ± 26.16 mg/dL.

Q: What about the “Testosterone association constant K1:1” value [3] of the same compound?
A: The value was 17800 M⁻¹.

Q: What about the “membrane disruption / percent hemolysis (in words)” value (red blood cell) of the same compound?
A: Its value is “causing the most membrane disruption”.

Q: What about the “Digoxin association constant K1:1” value [4] of the same compound?
A: The value was 28200 M⁻¹.
